Test results published in publication PMC10377753, “Pharmacokinetic and pharmacodynamic properties of polymyxin B in Escherichia coli and Klebsiella pneumoniae murine infection models” (Journal of Antimicrobial Chemotherapy, 2023).
Counter-ions that a name gives are not always drawn. Bridge positions count the residues as written; N and C are the ends. Square brackets hold non-standard residues; d marks the D form. Peptide text beside a SMILES is read from it. * marks the point of attachment. X1 = CC[C@H](C)CCCCC(=O)*; Dab = NCC[C@H](N)C(=O)O

Legend:
[1] = Plasma PK after single subcutaneous dose in infected neutropenic mice, population PK model; type: in vivo; conditions: for Time up to which plasma levels were detectable: LOQ 0.2 mg/L
Protocol: Mice were injected subcutaneously with a 0.1 mL single dose of polymyxin B 2 h after infection (t = 0). The PK of polymyxin B ranging between 0.5 and 64 mg/kg were determined in two mice per dose level. Mice were separated into two groups, with four dose levels studied in the thigh infection model (0.5, 2, 8, 32 mg/kg) and four dose levels studied in the lung infection model (1, 4, 16, 64 mg/kg). At t = 0, two mice were humanely euthanized to determine the bacterial load in the infected organ at the start of infection. At 10 different timepoints, blood was collected under isoflurane anaesthesia, in K3E EDTA tubes (Sarstedt, Nümbracht, Germany) through orbital sinus bleeding, which was immediately followed by cervical dislocation. The collected blood samples were centrifuged immediately at 15 871 RCF for 5 min at 4°C. Plasma was stored at −80°C until analysis.
Polymyxin B concentrations in plasma, BAL and ultrafiltrates were determined by a validated LC-MS/MS method,[18] with a lower limit of quantification (LOQ) of 0.2 mg/L for plasma and 0.05 mg/L for BAL fluid and ultrafiltrates. In this assay, 0.1 mL of plasma or 0.05 mL of BAL fluid or ultrafiltrates was added to 0.05 mL of drug-free plasma, and was mixed with 0.75 mL of phosphate buffer (pH 7.2) and 0.01 mL of internal standard (colistin sulphate, Merck KGaA, Darmstadt, Germany) at 6.25 mg/L for plasma and 5 mg/L for BAL fluid and ultrafiltrates. The samples were briefly vortexed and then centrifuged at 3000 rpm for 5 min. The supernatants (0.8 mL) were loaded onto solid-phase extraction columns (Oasis HLB solid-phase extraction cartridges, 1 mL, 30 mg, Waters, Saint-Quentin-en-Yvelines, France), preconditioned with 1 mL of methanol and followed by 1 mL of water. Columns were washed with 1 mL of water and dried under nitrogen pressure. The analytes were eluted with 0.5% formic acid in methanol and they were evaporated at 45°C under a gentle nitrogen jet stream. The residues were dissolved in 0.1 mL of 0.1% formic acid in water and analysed by LC-MS/MS. The system included an Alliance Waters 2695 LC system module (Waters) coupled with an API Quattro Micro (Waters). Polymyxin B was analysed on an XBridge C18 column (5 µm, 2.1 × 150 mm; Waters). The mobile phase A consisted of 0.1% formic acid in water, and mobile phase B was 0.1% formic acid in acetonitrile. The gradient for mobile phases A and B were respectively set at 75% and 25% with a flow rate of 0.2 mL/min. Electrospray ionization in positive mode was used for the detection of polymyxin B. Ions were analysed in the multiple reaction monitoring, and the following transitions were inspected: m/z 602.1→101 for polymyxin B1, m/z 595.1→101 for polymyxin B2, m/z 585.1→101 for CSTA and m/z 578.1→101 for CSTB. Calibration curves of polymyxin B ranged from 0.1 to 10 mg/L for plasma and ultrafiltrates, and were quantified with a quadratic regression mode. The intraday variability was characterized at four levels (0.3, 1, 2.5 and 10 mg/L) with a precision and bias of <20% for the lowest level, and <15% for the others.
A population PK model was developed using non-linear mixed-effects modelling (NONMEM, version 7.4.2 ICON Development Solutions, Ellicott City, MD, USA). The analysis was performed using the FOCE + I method on logarithmically transformed concentrations and data below the LOQ were omitted. Parameters were calculated for a virtual 1 kg mouse, resulting in pharmacokinetic parameters corresponding on a per kg base. In the first step a structural model was developed, using one- and two-compartment models. The absorption following subcutaneous injections was described using an absorption rate constant (ka). Typical values for central (Vc) and peripheral volume of distribution (Vp), CL and intercompartmental clearance (Q) were estimated. As bioavailability (F) could not be estimated, CL, Vc, Q, and Vp values corresponded to the ratios CL/F, Vc/F, Q/F and Vp/F, respectively. […]

plasma proteins [2] = experiment: Plasma protein binding by ultrafiltration; type: in vitro ADME; conditions: plasma of infected mice treated with polymyxin B, corrected for non-specific binding, LC-MS/MS, mean ± SD, no concentration dependency
Protocol: The binding of polymyxin B to plasma proteins was determined via ultrafiltration. Polymyxins have a tendency to non-specifically bind to different kinds of material, including ultrafiltration filters. Thus, to correct for polymyxin B loss on the filter, an experiment was performed in which ultrafiltrated (UF) phosphate buffer was spiked with multiple polymyxin B concentrations (ranging from 0.75 to 8 mg/L) and subsequently concentrations were measured. […] Using this relationship, the non-specific binding (NSB) for each measured polymyxin B UF concentration was calculated. Correction for the measured polymyxin B UF concentration using this NSB value was according to the following formula: polymyxin B UF Corrected Concentration = Measured polymyxin B UF Concentration × (1−NSB).
Polymyxin B concentrations in plasma, BAL and ultrafiltrates were determined by a validated LC-MS/MS method,[18] with a lower limit of quantification (LOQ) of 0.2 mg/L for plasma and 0.05 mg/L for BAL fluid and ultrafiltrates. […] The residues were dissolved in 0.1 mL of 0.1% formic acid in water and analysed by LC-MS/MS. […] Polymyxin B was analysed on an XBridge C18 column (5 µm, 2.1 × 150 mm; Waters). […] Calibration curves of polymyxin B ranged from 0.1 to 10 mg/L for plasma and ultrafiltrates, and were quantified with a quadratic regression mode. […]

plasma proteins [3] = conditions: mouse, spiked pooled plasma, ultracentrifugation; cited from earlier work
Description: Protein binding of polymyxin B is known to be high. However, a difference was found between the current study (unbound fraction 20%) compared with previous studies (8.6% for polymyxin B,[8] 8.4% for colistin[5]), which affects the PTA. In the present study, ultrafiltration was used for determining the unbound fraction, whilst ultracentrifugation was used in the other studies. With the ultrafiltration method, correction for the NSB to the ultrafiltration membranes was needed. In addition, differences in mouse plasma used for determination of polymyxin B protein binding may (partly) explain the ...

plasma proteins [4] = conditions: clinical studies; cited from earlier work
Protocol: A previously published population PK model[19] and Monte Carlo simulations was used to estimate the fAUCs of 5000 patients treated with 200 mg q24h (MicLab 2.71) taking into account protein-binding rates ranging from 36% to 98% as previously reported.[20–23] The PTA was calculated for isolates with MICs ranging from 0.25 to 4 mg/L. || In clinical studies, the protein binding of polymyxin B is much higher than reported in mice, with protein binding in plasma up to 99% for polymyxin B.[22],[26],[27] This applies to colistin as well.[5],[28] Therefore, the PK/PD targets based on the unbound fraction are necessary for translating PK/PD data of polymyxin B to the clinic.

## CC[C@H](C)CCCCC(=O)N[C@@H](CCN)C(=O)N[C@H](C(=O)N[C@@H](CCN)C(=O)N[C@H]1CCNC(=O)[C@H]([C@@H](C)O)NC(=O)[C@H](CCN)NC(=O)[C@H](CCN)NC(=O)[C@H](CC(C)C)NC(=O)[C@@H](Cc2ccccc2)NC(=O)[C@H](CCN)NC1=O)[C@@H](C)O [polymyxin B, Polymyxin B sulphate salt] (X1-[Dab]T[Dab][Dab][Dab][dF]L[Dab][Dab]T; lactam 4-C)
[1]; infected neutropenic mice, single s.c. dose 0.5–64 mg/kg, plasma LC-MS/MS, population PK (NONMEM), one-compartment, first-order absorption
  ka, absorption rate constant for 10 mg/kg dose: 1.63 h⁻¹
[1]; mouse, s.c., doses 16–64 mg/kg
  Time up to which plasma levels were detectable: up to 8 h
[1]; mouse, s.c., doses up to 8 mg/kg
  Time up to which plasma levels were detectable: up to 6 h
[1]; mouse, s.c., thigh and lung infection model
  Time to peak (Tmax): ≤ 2 h
[1]; mouse, sc, 10 mg/kg, infected neutropenic mice, single s.c. dose 0.5–64 mg/kg, plasma LC-MS/MS, population PK (NONMEM), one-compartment, read-out: CL/F, clearance for 10 mg/kg dose (converted)
  CL/F: 6.4 mL/min/kg
[1]; mouse, sc, infected neutropenic mice, single s.c. dose 0.5–64 mg/kg, plasma LC-MS/MS, population PK (NONMEM), one-compartment, read-out: Vc/F, central volume of distribution
  Vd/F: 0.774 L/kg
[1]; population PK model, CL = 0.384 × (DOSE/10)^−0.26
  Dose on CL, power on covariate effect of dose on CL: −0.26
[1]; population PK model, ka = 1.63 × (DOSE/10)^−0.407
  Dose on ka, power on covariate effect of dose on ka: −0.407
Plasma proteins [2]
  %fu (percent fraction unbound): 20% ± 4.0%
Plasma proteins [3]
  Unbound fraction: 8.6%
Plasma proteins [4]
  Protein binding in plasma: up to 99%
